# Earlier results in patent publication US6362183B1, “Aromatic sulfonyl alpha-hydroxy hydroxamic acid compounds” (G. D. Searle & Company, priority 1997, dated 2002).
# Tested on: advanced, rapidly progressive, treatment-refractory solid tumor cancers
# Settings: patients with colorectal, pancreatic, ovarian, prostate cancers; cited from earlier work
structure (smiles),measurement,value
CNC(=O)[C@@H](NC(=O)[C@H](CC(C)C)[C@H](O)C(=O)NO)C(C)(C)C [marimastat],effect on cancer-specific antigens used as surrogate markers for biological activity,dose-related reduction in the rise of cancer-specific antigens
